Results on one compound are retold here after EP0637237B1, “CALCIUM RECEPTOR-ACTIVE MOLECULES” (BRIGHAM AND WOMEN'S HOSPITAL, INC., priority 1993, dated 1994).

Experiment [1] concerns the target T1, parathyroid cell Ca^2+ receptor (Bos taurus, UniProt P35384).
T1 sequence (P35384 20-1085): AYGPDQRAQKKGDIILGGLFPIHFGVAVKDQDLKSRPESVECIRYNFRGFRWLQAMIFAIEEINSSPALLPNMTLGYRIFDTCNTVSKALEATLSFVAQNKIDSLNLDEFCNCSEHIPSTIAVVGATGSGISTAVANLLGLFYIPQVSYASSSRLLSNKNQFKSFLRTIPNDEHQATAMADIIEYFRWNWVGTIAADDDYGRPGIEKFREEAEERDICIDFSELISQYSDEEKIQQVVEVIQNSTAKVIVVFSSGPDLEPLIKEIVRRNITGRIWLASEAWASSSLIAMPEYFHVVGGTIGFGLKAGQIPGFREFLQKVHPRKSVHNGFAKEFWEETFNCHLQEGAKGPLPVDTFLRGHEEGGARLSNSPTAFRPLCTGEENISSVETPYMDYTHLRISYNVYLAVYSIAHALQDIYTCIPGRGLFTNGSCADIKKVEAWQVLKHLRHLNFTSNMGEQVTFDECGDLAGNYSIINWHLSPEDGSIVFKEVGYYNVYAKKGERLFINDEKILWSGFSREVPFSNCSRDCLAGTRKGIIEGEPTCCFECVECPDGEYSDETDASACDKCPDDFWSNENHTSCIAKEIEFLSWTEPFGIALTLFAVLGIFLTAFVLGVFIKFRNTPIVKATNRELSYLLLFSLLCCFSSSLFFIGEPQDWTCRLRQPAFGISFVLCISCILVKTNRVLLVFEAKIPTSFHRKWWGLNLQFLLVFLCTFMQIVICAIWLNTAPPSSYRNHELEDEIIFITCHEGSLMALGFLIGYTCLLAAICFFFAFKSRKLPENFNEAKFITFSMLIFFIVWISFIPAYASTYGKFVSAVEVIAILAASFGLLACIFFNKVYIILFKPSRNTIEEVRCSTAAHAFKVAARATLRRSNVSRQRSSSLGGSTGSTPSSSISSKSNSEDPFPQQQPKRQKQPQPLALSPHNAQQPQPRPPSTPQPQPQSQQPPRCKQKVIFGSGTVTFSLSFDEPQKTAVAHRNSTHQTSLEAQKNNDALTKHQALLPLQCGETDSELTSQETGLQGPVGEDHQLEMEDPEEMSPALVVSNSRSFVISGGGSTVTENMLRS
Format: cell-based, bovine.

In experiment [2] the target is T2, parathyroid cell Ca^2+ receptor (Homo sapiens, UniProt P41180).
T2 construct: Dissociated parathyroid cells were prepared from a parathyroid adenoma obtained by surgery from a patient with primary hyperparathyroidism; endogenous in cells; host or cells: primary human parathyroid cells from adenomatous or hyperplastic glands
T2 sequence (P41180 20-1078): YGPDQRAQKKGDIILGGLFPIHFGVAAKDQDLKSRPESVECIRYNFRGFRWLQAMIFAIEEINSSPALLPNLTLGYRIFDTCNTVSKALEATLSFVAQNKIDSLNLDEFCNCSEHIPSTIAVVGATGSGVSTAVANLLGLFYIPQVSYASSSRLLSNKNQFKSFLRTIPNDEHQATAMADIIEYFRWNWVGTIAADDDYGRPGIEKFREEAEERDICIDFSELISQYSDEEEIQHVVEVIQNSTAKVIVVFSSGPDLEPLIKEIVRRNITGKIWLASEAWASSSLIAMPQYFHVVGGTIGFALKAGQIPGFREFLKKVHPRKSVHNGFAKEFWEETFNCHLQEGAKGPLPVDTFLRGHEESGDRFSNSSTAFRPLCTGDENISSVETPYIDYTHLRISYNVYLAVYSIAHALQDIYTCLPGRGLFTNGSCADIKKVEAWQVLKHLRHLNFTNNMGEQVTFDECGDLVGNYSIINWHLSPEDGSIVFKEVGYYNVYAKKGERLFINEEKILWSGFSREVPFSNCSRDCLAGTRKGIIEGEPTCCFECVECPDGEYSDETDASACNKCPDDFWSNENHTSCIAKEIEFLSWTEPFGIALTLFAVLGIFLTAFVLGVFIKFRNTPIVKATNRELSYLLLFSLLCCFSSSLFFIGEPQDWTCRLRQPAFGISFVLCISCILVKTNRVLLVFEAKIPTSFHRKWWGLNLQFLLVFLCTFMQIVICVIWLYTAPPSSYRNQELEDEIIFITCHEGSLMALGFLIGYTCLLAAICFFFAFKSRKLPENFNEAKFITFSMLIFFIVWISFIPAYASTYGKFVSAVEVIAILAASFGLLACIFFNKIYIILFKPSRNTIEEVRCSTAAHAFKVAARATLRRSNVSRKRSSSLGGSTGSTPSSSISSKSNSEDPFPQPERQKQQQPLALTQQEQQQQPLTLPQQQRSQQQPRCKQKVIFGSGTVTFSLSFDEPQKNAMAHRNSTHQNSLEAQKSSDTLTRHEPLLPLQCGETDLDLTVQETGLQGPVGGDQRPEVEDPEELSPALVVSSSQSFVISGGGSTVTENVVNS
Description: [Ca2+]i (fura-2) in human parathyroid cells. It counts as cell-based. Set-up: increase in [Ca2+]i: dose or concentration left out as unconfirmed.
Description: Human parathyroid glands, obtained from patients undergoing surgical removal of parathyroid tissue for primary or uremic hyperparathyroidism (HPT), were treated similarly to bovine tissue. Glands were trimmed of excess fat and connective tissue and then minced with a fine scissors into approximate cubes of 2-3 mm. Dissociated parathyroid cells were prepared by collagenase digestion. Dissociated cells were then purified by centrifugation in Percoll buffer. The resultant parathyroid cell preparation was essentially devoid of red blood cells, adipocytes, and capillary tissue as assessed by phase contrast microscopy and Sudan black B staining. Dissociated and purified parathyroid cells were present as small clusters containing 5 to 20 cells.
The cells were then pelleted, resuspended in the same buffer lacking the ester, and incubated a further 15 min at 37°C. The cells were subsequently washed twice with PCB containing 0.5 mM CaCl2 and 0.5% BSA and maintained at room temperature (about 20°C). Immediately before use, the cells were diluted five-fold with prewarmed 0.5 mM CaCl2-PCB to obtain a final BSA concentration of 0.1%. The concentration of cells in the cuvette used for fluorescence recording was 1-2 x 10^6/ml.
The fluorescence of indicator-loaded cells was measured at 37°C in a spectrofluorimeter (Biomedical Instrumentation Group, University of Pennsylvania, Philadelphia, PA) equipped with a thermostated cuvette holder-and magnetic stirrer using excitation and emission wavelengths of 340 and 510 nm, respectively. […] Leakage of dye is dependent on temperature and most occurs within the first 2 min after warming the cells in the cuvette; dye leakage increases only very slowly thereafter. To correct the calibration for dye leakage, cells were placed in the cuvette and stirred at 37°C for 2-3 min. The cell suspension was then removed, the cells pelleted, and the supernatant returned to a clean cuvette. […] This estimate was subtracted from the apparent Fmin.

The structures appear in SMILES notation. Where two headings read alike, the source gives them in different places.

`NC[C@@H]1O[C@H](O[C@H]2[C@@H](O)[C@H](O[C@@H]3[C@@H](O)[C@H](N)C[C@H](N)[C@H]3O[C@H]3O[C@H](CN)[C@@H](O)[C@H](O)[C@H]3N)O[C@@H]2CO)[C@H](N)[C@@H](O)[C@@H]1O` [neomycin B]: the “[Ca2+]i response in Ca2+-free buffer” value in experiment [1] (100 µM neomycin (maximally effective), absence of extracellular Ca2+) is “rapid and transient increase in [Ca^2+]i”; in experiment [1] (10 àM neomycin alone (submaximal), Ca2+-free buffer), “did not by itself cause an increase in [Ca^2+]i”. Further, the “pattern of change in [Ca2+]i” value in experiment [2] (human parathyroid cells from adenomatous tissue, Fig. 19) is “not only a transient but additionally a steady-state increase in [Ca^2+]i”. Further, the “increase in [Ca2+]i” value in experiment [2] (tested) was “large increase in [Ca^2+]i”.
